# In patent publication US20240409532A1, “BIPHENYL SULFONAMIDES AS DUAL ANGIOTENSIN ENDOTHELIN RECEPTOR ANTAGONISTS” (Chongqing Hongyuantang Medicine Co., Ltd., priority 2023, published 2024):
# Target: T1, ETA receptor (Rattus norvegicus, UniProt P26684)
# T1 construct: evaluated in isolated rat aortic ring; from tissue; host or cells: isolated rat aortic ring
# T1 sequence (P26684 21-426): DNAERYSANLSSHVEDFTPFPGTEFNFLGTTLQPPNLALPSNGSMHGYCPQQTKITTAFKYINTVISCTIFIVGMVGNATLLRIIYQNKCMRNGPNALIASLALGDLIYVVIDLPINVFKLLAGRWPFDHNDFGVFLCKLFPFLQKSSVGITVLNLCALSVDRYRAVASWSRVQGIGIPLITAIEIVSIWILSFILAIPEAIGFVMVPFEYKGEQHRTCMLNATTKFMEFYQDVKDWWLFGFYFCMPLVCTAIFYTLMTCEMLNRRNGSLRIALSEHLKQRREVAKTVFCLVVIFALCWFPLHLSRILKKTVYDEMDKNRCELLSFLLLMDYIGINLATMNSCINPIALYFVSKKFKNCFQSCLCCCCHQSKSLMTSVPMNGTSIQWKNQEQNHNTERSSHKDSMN
# Assay: In vitro evaluation of inhibitory activity against ETA receptor (isolated rat aortic ring, literature procedure)
# Assay type: biochemical
# Conditions: telmisartan as control
# Description: The biological activity of compounds was evaluated in isolated rat aortic ring and in systemic arterial pressure (SAP) of anesthetized rat experiments using the literature procedures in Chinese Pharmacological Bulletin 2008, 24 (11): 1422-1426.
# Telmisartan, as an AT1 receptor antagonist approved for marketing by the US FDA in 1998, was used as a control to evaluate the inhibitory activity of AT1 and ETA receptors.
row,Ki [nM],SMILES
1,> 102,CCOCc1cc(Cn2c(C)nc3c(C)cc(-c4nc5ccccc5n4C)cc32)ccc1-c1ccccc1S(=O)(=O)Nc1noc(C)c1C [Compound 1-4]
2,13.2 ± 3.3,"CCOCc1cc(Cn2c(CC)nc3c(C)cc(-c4nc5ccccc5n4C)cc32)ccc1-c1ccccc1S(=O)(=O)Nc1noc(C)c1C [Compound 1-7, N-(4,5-dimethylisoxazol-3-yl)-2′-(ethoxymethyl)-4′-((2′-ethyl-1,7′-dimethyl-1H,3′H-[2,5′-bibenzo[d]imidazol]-3′-yl)methyl)-[1,1′-biphenyl]-2-sulfonamide]"
3,6.8 ± 1.8,"CCCc1nc2c(C)cc(-c3nc4ccccc4n3C)cc2n1Cc1ccc(-c2ccccc2S(=O)(=O)Nc2noc(C)c2C)c(COCC)c1 [Compound 1-10, 4′-((1,7′-dimethyl-2′-propyl-1H,3′H-[2,5′-bibenzo[d]imidazol]-3′-yl)methyl)-N-(4,5-dimethylisoxazol-3-yl)-2′-(ethoxymethyl)-[1,1′-biphenyl]-2-sulfonamide]"
4,7.2 ± 2.1,"CCCCc1nc2c(C)cc(-c3nc4ccccc4n3C)cc2n1Cc1ccc(-c2ccccc2S(=O)(=O)Nc2noc(C)c2C)c(COCC)c1 [Compound 1-13, 4′-((2′-butyl-1,7′-dimethyl-1H,3′H-[2,5′-bibenzo[d]imidazol]-3′-yl)methyl)-N-(4,5-dimethylisoxazol-3-yl)-2′-(ethoxymethyl)-[1,1′-biphenyl]-2-sulfonamide]"
5,8.8 ± 2.2,"CCCc1nc2c(C)cc(-c3nc4ccccc4n3C)cc2n1Cc1ccc(-c2ccccc2S(=O)(=O)Nc2onc(C)c2C)c(COCC)c1 [Compound 2-3, 4′-((1,7′-dimethyl-2′-propyl-1H,3′H-[2,5′-bibenzo[d]imidazol]-3′-yl)methyl)-N-(3,4-dimethylisoxazol-5-yl)-2′-(ethoxymethyl)-[1,1′-biphenyl]-2-sulfonamide]"
6,9.2 ± 2.3,"CCCCc1nc2c(C)cc(-c3nc4ccccc4n3C)cc2n1Cc1ccc(-c2ccccc2S(=O)(=O)Nc2onc(C)c2C)c(COCC)c1 [Compound 2-5, 4′-((2′-butyl-1,7′-dimethyl-1H,3′H-[2,5′-bibenzo[d]imidazol]-3′-yl)methyl)-N-(3,4-dimethylisoxazol-5-yl)-2′-(ethoxymethyl)-[1,1′-biphenyl]-2-sulfonamide]"
7,> 103,"CCCc1nc2c(C)cc(-c3nc4ccccc4n3C)cc2n1Cc1ccc(-c2ccccc2C(=O)O)cc1 [Telmisartan, reference compound]"
